Test results as given in ChEMBL document CHEMBL1821675, “The selective P-TEFb inhibitor CAN508 targets angiogenesis” (Eur J Med Chem, 2011).

Key:
[1] = tested on: HMEC-1; experiment: Inhibition of RNA synthesis in human HMEC1 cells assessed as decrease in [3H] Uridine incorporation after 2 hrs by scintillation counting; type: functional, cell-based
[2] = target: RAC-alpha serine/threonine-protein kinase (Homo sapiens) (UniProt P31749); experiment: Inhibition of PKBalpha assessed as residual activity at 10 uM by radioactivity assay in presence of 5 uM ATP
[3] = tested on: HCT-15; experiment: Cytotoxicity against human HCT15 cells; type: functional
[4] = target: Mitogen-activated protein kinase 15 (Homo sapiens) (UniProt Q8TD08); experiment: Inhibition of ERK8 assessed as residual activity at 10 uM by radioactivity assay in presence of 5 uM ATP
[5] = tested on: HUVEC; experiment: Antiangiogenic activity against HUVEC cells assessed as inhibition of VEGF-induced cell migration-associated wound closure after 16 hrs by microscopic analysis; type: functional, cell-based; conditions: Homo sapiens
[6] = target: Mitogen-activated protein kinase 10 (Homo sapiens) (UniProt P53779); experiment: Inhibition of JNK3alpha1 assessed as residual activity at 10 uM by radioactivity assay in presence of 20 uM ATP
[7] = target: Cyclin-dependent kinase 2/cyclin A (Homo sapiens) (UniProt P24941+P20248+P78396); experiment: Inhibition of CDK2/cyclin A assessed as residual activity at 10 uM by radioactivity assay in presence of 20 uM ATP; type: protein-complex assay
[8] = target: Insulin-like growth factor 1 receptor (Homo sapiens) (UniProt P08069); experiment: Inhibition of IGF-1R assessed as residual activity at 10 uM by radioactivity assay in presence of 5 uM ATP
[9] = tested on: SW-620; experiment: Cytotoxicity against human SW620 cells; type: functional
[10] = target: Glycogen synthase kinase-3 beta (Homo sapiens) (UniProt P49841); experiment: Inhibition of GSK3b assessed as residual activity at 10 uM by radioactivity assay in presence of 5 uM ATP
[11] = target: Mitogen-activated protein kinase 8 (Homo sapiens) (UniProt P45983); experiment: Inhibition of JNK1A1 assessed as residual activity at 10 uM by radioactivity assay in presence of 20 uM ATP
[12] = tested on: NCI-H23; experiment: Cytotoxicity against human NCI-H23 cells; type: functional
[13] = target: CDK9/cyclin T1 (Homo sapiens) (UniProt O60563+P50750); experiment: Inhibition of CDK9/cyclin T assessed as residual activity at 10 uM by radioactivity assay in presence of 50 uM ATP; type: protein-complex assay
[14] = Antiangiogenic activity in VEGF-stimulated HMEC1 assessed as reduction in median length of tube at 40 uM after 16 hrs by photographic analysis; type: functional, Homo sapiens, HMEC-1; design: scale not given: the % may be the effect or the level left
[15] = target: RAC-beta serine/threonine-protein kinase (Homo sapiens) (UniProt P31751); experiment: Inhibition of PKBbeta assessed as residual activity at 10 uM by radioactivity assay in presence of 50 uM ATP
[16] = target: Serine/threonine-protein kinase Chk1 (Homo sapiens) (UniProt O14757); experiment: Inhibition of CHK1 assessed as residual activity at 10 uM by radioactivity assay in presence of 20 uM ATP
[17] = tested on: HT-29; experiment: Cytotoxicity against human HT-29 cells; type: functional
[18] = target: Mitogen-activated protein kinase 1 (Homo sapiens) (UniProt P28482); experiment: Inhibition of ERK2 assessed as residual activity at 10 uM by radioactivity assay in presence of 20 uM ATP
[19] = tested on: SK-OV-3; experiment: Cytotoxicity against human SKOV3 cells; type: functional
[20] = target: Calcium/calmodulin-dependent protein kinase type 1 (Homo sapiens) (UniProt Q14012); experiment: Inhibition of CAMK1 assessed as residual activity at 10 uM by radioactivity assay in presence of 50 uM ATP
[21] = tested on: NCI/ADR-RES; experiment: Cytotoxicity against human NCI/ADR-RES cells; type: functional
[22] = target: Casein kinase II subunit alpha (Homo sapiens) (UniProt P68400); experiment: Inhibition of CK2alpha assessed as residual activity at 10 uM by radioactivity assay in presence of 20 uM ATP
[23] = target: Ephrin type-A receptor 2 (Homo sapiens) (UniProt P29317); experiment: Inhibition of EPHA2 assessed as residual activity at 10 uM by radioactivity assay in presence of 50 uM ATP
[24] = target: Serine/threonine-protein kinase PAK 2 (Homo sapiens) (UniProt Q13177); experiment: Inhibition of PAK2 assessed as residual activity at 10 uM by radioactivity assay in presence of 20 uM ATP
[25] = target: Eukaryotic elongation factor 2 kinase (Homo sapiens) (UniProt O00418); experiment: Inhibition of EF2K assessed as residual activity at 10 uM by radioactivity assay in presence of 5 uM ATP
[26] = target: Dual specificity protein kinase TTK (Homo sapiens) (UniProt P33981); experiment: Inhibition of TTK assessed as residual activity at 10 uM by radioactivity assay in presence of 20 uM ATP
[27] = target: MAP/microtubule affinity-regulating kinase 4 (Homo sapiens) (UniProt Q96L34); experiment: Inhibition of MARK4 assessed as residual activity at 10 uM by radioactivity assay in presence of 50 uM ATP
[28] = tested on: SF-539; experiment: Cytotoxicity against human SF539 cells; type: functional
[29] = target: Serine/threonine-protein kinase Chk2 (Homo sapiens) (UniProt O96017); experiment: Inhibition of CHK2 assessed as residual activity at 10 uM by radioactivity assay in presence of 20 uM ATP
[30] = target: Serine/threonine-protein kinase TBK1 (Homo sapiens) (UniProt Q9UHD2); experiment: Inhibition of TBK1 assessed as residual activity at 10 uM by radioactivity assay in presence of 50 uM ATP
[31] = target: Serine/threonine-protein kinase Nek6 (Homo sapiens) (UniProt Q9HC98); experiment: Inhibition of NEK6 assessed as residual activity at 10 uM by radioactivity assay in presence of 50 uM ATP
[32] = tested on: OVCAR-3; experiment: Cytotoxicity against human OVCAR3 cells; type: functional
[33] = tested on: RXF 393; experiment: Cytotoxicity against human RXF393 cells; type: functional
[34] = target: Aurora kinase B (Homo sapiens) (UniProt Q96GD4); experiment: Inhibition of Aurora B assessed as residual activity at 10 uM by radioactivity assay in presence of 20 uM ATP
[35] = tested on: UACC-257; experiment: Cytotoxicity against human UACC257 cells; type: functional
[36] = target: Tyrosine-protein kinase CSK (Homo sapiens) (UniProt P41240); experiment: Inhibition of CSK assessed as residual activity at 10 uM by radioactivity assay in presence of 20 uM ATP
[37] = tested on: BT-549; experiment: Cytotoxicity against human BT549 cells; type: functional
[38] = tested on: A549; experiment: Cytotoxicity against human A549 cells; type: functional
[39] = target: Serine/threonine-protein kinase MARK2 (Homo sapiens) (UniProt Q7KZI7); experiment: Inhibition of MARK2 assessed as residual activity at 10 uM by radioactivity assay in presence of 20 uM ATP
[40] = target: Serine/threonine-protein kinase 3 (Homo sapiens) (UniProt Q13188); experiment: Inhibition of MST2 assessed as residual activity at 10 uM by radioactivity assay in presence of 20 uM ATP
Chain of Serine/threonine-protein kinase 3 (Homo sapiens) (Q13188 whole entry): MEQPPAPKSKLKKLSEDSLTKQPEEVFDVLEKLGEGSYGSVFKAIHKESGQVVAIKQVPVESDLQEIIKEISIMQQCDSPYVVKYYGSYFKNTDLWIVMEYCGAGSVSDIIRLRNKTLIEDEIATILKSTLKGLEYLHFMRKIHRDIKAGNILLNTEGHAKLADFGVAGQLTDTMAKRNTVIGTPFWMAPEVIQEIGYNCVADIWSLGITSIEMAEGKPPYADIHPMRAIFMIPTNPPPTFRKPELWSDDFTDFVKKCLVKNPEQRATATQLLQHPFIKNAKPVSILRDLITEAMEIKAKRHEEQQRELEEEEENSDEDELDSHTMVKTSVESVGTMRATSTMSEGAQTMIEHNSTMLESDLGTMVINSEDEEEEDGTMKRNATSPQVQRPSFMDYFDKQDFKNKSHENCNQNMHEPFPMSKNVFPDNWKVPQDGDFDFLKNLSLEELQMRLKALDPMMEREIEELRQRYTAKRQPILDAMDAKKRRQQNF

Chain of Serine/threonine-protein kinase MARK2 (Homo sapiens) (Q7KZI7 whole entry): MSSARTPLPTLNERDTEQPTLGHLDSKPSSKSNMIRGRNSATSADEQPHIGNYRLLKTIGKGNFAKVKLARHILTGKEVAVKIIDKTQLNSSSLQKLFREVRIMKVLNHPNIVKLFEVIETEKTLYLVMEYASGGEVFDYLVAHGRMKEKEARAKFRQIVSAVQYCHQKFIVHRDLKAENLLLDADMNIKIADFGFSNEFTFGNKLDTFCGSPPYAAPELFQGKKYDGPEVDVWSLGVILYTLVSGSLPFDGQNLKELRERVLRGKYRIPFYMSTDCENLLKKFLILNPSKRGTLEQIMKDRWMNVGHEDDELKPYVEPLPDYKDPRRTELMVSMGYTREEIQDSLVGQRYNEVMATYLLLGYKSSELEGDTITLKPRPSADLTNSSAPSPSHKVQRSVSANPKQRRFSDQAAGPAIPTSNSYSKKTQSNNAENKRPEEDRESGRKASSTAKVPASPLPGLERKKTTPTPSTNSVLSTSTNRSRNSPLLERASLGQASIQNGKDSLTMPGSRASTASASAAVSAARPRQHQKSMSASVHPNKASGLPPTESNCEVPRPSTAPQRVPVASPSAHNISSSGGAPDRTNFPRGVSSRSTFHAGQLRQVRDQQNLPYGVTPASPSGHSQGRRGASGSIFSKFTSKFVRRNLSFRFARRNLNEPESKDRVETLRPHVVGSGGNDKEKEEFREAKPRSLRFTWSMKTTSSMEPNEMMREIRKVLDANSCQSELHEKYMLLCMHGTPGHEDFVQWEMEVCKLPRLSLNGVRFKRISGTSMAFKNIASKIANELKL
Chain of Mitogen-activated protein kinase 1 (Homo sapiens) (P28482 whole entry): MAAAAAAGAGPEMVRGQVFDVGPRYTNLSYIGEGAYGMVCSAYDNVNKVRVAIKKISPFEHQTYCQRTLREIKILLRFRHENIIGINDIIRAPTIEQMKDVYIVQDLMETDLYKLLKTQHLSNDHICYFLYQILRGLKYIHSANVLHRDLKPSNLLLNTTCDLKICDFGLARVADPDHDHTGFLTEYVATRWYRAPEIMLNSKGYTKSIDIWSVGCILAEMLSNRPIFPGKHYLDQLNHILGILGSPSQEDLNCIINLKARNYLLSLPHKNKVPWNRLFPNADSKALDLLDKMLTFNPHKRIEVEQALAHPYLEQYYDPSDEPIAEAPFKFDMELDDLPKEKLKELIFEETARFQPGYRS
Chain of Mitogen-activated protein kinase 10 (Homo sapiens) (P53779 whole entry): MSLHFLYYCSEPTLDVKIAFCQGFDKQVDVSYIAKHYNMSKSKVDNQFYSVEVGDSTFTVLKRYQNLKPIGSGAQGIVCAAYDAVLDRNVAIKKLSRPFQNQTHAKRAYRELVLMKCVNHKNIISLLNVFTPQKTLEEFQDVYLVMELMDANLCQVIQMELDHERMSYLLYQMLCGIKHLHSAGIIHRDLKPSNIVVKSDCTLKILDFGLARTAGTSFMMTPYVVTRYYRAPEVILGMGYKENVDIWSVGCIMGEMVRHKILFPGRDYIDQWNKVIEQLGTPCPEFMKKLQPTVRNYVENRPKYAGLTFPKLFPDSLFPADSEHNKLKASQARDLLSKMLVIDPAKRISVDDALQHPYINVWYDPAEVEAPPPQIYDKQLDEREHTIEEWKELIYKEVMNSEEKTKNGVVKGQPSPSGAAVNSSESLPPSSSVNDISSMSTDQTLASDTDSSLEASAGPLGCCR
Chain of RAC-alpha serine/threonine-protein kinase (Homo sapiens) (P31749 whole entry): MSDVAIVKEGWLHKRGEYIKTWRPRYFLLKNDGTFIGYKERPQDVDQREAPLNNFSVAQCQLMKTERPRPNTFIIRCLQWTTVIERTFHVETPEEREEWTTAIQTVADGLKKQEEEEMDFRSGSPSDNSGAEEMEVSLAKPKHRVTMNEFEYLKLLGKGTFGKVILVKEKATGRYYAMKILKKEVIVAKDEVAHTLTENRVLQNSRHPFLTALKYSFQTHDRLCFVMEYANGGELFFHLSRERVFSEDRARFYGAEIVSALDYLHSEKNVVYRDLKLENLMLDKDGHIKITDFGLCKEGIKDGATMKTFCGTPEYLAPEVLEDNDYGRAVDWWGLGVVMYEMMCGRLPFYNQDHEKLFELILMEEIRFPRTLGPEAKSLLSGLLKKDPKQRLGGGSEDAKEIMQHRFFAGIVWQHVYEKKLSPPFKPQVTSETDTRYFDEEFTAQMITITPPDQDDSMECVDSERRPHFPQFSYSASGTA
Chain of Glycogen synthase kinase-3 beta (Homo sapiens) (P49841 whole entry, looked up): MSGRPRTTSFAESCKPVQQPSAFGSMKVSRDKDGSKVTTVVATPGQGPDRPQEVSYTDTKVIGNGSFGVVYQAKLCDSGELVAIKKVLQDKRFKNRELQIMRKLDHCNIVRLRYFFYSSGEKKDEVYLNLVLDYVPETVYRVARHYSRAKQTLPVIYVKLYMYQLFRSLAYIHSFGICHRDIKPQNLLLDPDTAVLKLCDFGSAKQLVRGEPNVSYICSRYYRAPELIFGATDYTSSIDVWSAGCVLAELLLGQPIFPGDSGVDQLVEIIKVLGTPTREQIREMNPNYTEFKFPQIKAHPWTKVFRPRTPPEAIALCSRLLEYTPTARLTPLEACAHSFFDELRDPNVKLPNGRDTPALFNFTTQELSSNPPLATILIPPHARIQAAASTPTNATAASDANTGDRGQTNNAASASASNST
Chain of Casein kinase II subunit alpha (Homo sapiens) (P68400 whole entry, looked up): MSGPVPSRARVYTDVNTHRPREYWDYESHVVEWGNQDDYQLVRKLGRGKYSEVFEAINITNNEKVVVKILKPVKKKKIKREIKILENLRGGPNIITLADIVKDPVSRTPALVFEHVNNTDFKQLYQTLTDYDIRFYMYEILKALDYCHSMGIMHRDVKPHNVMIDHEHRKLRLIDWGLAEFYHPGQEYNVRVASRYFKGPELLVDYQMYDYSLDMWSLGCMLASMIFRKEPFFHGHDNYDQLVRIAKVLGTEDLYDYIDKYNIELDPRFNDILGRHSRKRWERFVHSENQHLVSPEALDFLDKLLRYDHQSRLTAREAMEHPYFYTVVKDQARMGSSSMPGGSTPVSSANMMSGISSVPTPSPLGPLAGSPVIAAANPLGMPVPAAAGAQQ
Chain of Serine/threonine-protein kinase TBK1 (Homo sapiens) (Q9UHD2 whole entry): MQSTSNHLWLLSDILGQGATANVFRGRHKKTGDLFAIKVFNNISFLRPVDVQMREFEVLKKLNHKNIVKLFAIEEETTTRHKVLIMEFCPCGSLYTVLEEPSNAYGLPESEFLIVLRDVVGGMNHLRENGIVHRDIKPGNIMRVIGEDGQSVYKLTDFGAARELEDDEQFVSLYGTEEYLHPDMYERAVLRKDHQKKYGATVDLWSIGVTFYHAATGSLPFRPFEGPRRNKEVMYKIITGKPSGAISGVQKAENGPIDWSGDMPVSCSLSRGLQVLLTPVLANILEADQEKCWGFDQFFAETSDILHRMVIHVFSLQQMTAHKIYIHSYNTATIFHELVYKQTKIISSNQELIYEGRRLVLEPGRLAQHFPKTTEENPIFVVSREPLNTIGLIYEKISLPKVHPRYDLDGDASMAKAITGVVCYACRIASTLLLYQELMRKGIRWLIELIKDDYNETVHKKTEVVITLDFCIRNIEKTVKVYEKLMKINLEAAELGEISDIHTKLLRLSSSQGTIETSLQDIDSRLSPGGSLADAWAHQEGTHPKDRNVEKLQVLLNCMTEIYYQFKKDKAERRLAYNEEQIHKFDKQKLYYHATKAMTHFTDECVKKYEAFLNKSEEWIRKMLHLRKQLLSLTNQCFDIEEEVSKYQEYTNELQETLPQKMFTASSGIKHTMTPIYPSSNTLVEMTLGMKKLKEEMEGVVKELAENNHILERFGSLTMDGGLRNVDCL
Chain of Eukaryotic elongation factor 2 kinase (Homo sapiens) (O00418 whole entry): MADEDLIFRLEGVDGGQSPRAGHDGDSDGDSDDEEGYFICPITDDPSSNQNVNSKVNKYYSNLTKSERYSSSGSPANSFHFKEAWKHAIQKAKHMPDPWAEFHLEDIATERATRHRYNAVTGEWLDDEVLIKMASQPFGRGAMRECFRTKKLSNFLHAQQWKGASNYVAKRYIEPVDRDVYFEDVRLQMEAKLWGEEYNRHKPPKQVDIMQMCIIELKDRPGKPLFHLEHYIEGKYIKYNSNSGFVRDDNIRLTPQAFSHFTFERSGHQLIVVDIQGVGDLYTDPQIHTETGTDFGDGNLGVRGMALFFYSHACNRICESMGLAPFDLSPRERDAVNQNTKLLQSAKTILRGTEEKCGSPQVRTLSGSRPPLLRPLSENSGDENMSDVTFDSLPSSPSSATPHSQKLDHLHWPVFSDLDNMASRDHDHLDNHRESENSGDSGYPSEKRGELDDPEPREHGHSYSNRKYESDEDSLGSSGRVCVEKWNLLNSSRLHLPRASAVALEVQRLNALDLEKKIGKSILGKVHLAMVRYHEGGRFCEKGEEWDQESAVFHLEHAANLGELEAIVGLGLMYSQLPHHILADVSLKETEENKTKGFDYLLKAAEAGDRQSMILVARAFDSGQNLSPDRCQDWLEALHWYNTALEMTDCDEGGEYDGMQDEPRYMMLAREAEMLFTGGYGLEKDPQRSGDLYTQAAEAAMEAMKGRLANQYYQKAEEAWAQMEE

Structure (SMILES): Nc1n[nH]c(N)c1/N=N/c1ccc(O)cc1
- IC50 [1]: 20 µM
- Activity [2]: 100%
- GI50 [3]: 24.2 µM
- Activity [4]: 17%
- inhibition [5]: Dose-dependent effect
- Activity [6]: 108%
- Activity [7]: 27%
- Activity [8]: 48%
- GI50 [9]: 26.3 µM
- Activity [10]: 64%
- Activity [11]: 87%
- GI50 [12]: 19.1 µM
- Activity [13]: 12%
- Activity [14]: 50%
- Activity [15]: 56%
- Activity [16]: 98%
- GI50 [17]: 29.7 µM
- Activity [18]: 106%
- GI50 [19]: 49.2 µM
- Activity [20]: 81%
- GI50 [21]: 22.5 µM
- Activity [22]: 48%
- Activity [23]: 101%
- Activity [24]: 91%
- Activity [25]: 106%
- Activity [26]: 55%
- Activity [27]: 72%
- GI50 [28]: 13.2 µM
- Activity [29]: 57%
- Activity [30]: 55%
- Activity [31]: 114%
- GI50 [32]: 22.8 µM
- GI50 [33]: 18.4 µM
- Activity [34]: 46%
- GI50 [35]: 24.4 µM
- Activity [36]: 105%
- GI50 [37]: 14 µM
- GI50 [38]: 22.5 µM
- Activity [39]: 79%
- Activity [40]: 57%
